Results taken from patent publication US9944607B2, “Thiohydantoin derivatives and uses thereof” (Whitehead Institute for Biomedical Research, priority 2012, dated 2018).
Read-outs that look alike come from different tables or passages of the source.

Columns and labels:
[1] = target: bovine bc1 complex (Bos taurus, UniProt P00157); settings: read-out: IC50, isolated bovine bc1 complex; studies by Trumpower et al.; cited from earlier work
[2] = tested on: HeLa cells; settings: Hayakawa et al. 1971, cited from earlier work
[3] = target: S. cerevisiae cytochrome bc1 complex (Saccharomyces cerevisiae, UniProt P00163); settings: cited from earlier work
[4] = PBS stability; assay type: physicochemical; settings: PBS pH 7.4, 23° C.
Description: Stability was determined in the presence of PBS pH 7.4 with 0.1% DMSO. […] One plate was removed at each time point (0, 2, 4, 8, 24, and 48 hours). […] Additionally, to the remaining material at each time point, acetonitrile was added to force dissolution of compound (to test for recovery of compound). An aliquot of this was also analyzed by UPLC-MS.

[5] = tested on: Candida albicans CaCi-2; assay: Colony counts over time, C. albicans CaCi-2 in RPMI (FIG. 15); assay type: cell-based; settings: colonies counted after 24 and 48 hours
Description: […] The CaCi-2 strain was inoculated into RPMI media at 10^3 CFU/mL in the presence or absence of 5 μM I-B-4 (ML316) and 32 ug/mL fluconazole. Colonies were plated from the cultures after 24 and 48 hours and counted.

[6] = tested on: mitochondrial membrane potential of S. cerevisiae; assay: Secondary mitochondrial disruption assay (JC-1 dye, flow cytometry); assay type: cell-based, Saccharomyces cerevisiae; settings: living S. cerevisiae treated with 1 μM compound; AIDs 624062, 624068
Description: Procedures • Use a Thermo Combi nL to dispense 20 μL/well of assay media into all wells. • Add 2 μL of Amphotericin B to control wells. • Pin 100 nL of test compound from compound plates into assay plates using a CyBi-Well pin tool. • Dispense 20 μL/well of culture into the assay media in all wells. • Incubate the plates in a humidified (90% humidity) Liconic incubator at 37° C. without agitation for 48 hours. • Shake plates briefly. • Read OD600 of wells on a standard plate reader as measure of relative fungal growth. Envision (Perkin Elmer) plate reader settings: Ex Photometric 600, Top read. 4.5. Secondary Mitochondrial Disruption Assay (AID No. 624062 and 624068)
The fluorescent dye JC-1 was used to quantify the ability of compounds to disrupt the mitochondrial membrane potential of fungi. Mitochondrial membrane depolarization is indicated by a decrease in the yellow/green fluorescence intensity ratio. This is a non-gating, binning assay that establishes whether inhibition of fungal growth in glycerol results from direct compromise of mitochondrial function or alternative components of fungal respiratory metabolism. Probes that disrupt mitochondrial function as well as those that perturb other metabolic components are desirable. […]
Additionally, direct impairment of mitochondrial function in C. glabrata and S. cerevisiae was assessed using a fluorescence assay.

[7] = tested on: Candida albicans CaCi-2; assay: Broth microdilution growth inhibition of C. albicans CaCi-2 in presence or absence of fluconazole; assay type: cell-based; settings: CACI2, RPMI media
Description: Growth inhibition of I-B-4 (ML316) against Candida albicans CaCi-2 in the presence or absence of fluconazole was assessed using the broth microdilution method with RPMI media.

[8] = tested on: Candida albicans strain SC5314; assay: Colony counts over time, C. albicans SC5314 in RPMI (FIG. 14); assay type: cell-based; settings: colonies counted after 24 and 48 hours
Description: Compound I-B-4 (ML316) was studied in fluconazole-sensitive Candida albicans strain SC5314. The SC5314 strain was inoculated into RPMI media at 10^3 CFU/mL in the presence or absence of 5 μM I-B-4 (ML316) and 32 ug/mL fluconazole. Colonies were plated from the cultures after 24 and 48 hours and counted.

[9] = 5 μM I-B-4 and 32 ug/mL fluconazole

Row | Compound | IC50 [1] [µM] | MIC against HeLa cells [2] [µg/mL] | MIC against HeLa cells ([2]; same value converted) [µM] | Selectivity for S. cerevisiae (fungal) bc1 complex over bovine bc1 complex ([3]; biochemical assays with purified proteins, literature) [fold] | IC50 ([3]; read-out: IC50, purified S. cerevisiae cytochrome bc1 complex, studies by Trumpower et al.) [µM] | Stability in PBS solution, % remaining after a 48-hour incubation [4] [%] | Cytotoxicity to fluconazole-resistant C. albicans CaCi-2, compound alone ([5]; 5 μM I-B-4) | Cytotoxicity to fluconazole-resistant C. albicans CaCi-2, combination with fluconazole (FCZ) [5, 9] | Depolarization of the mitochondrial membrane (JC-1 dye) [6] | IC50 ([7]; absence of fluconazole (FIG. 8), read-out: IC50 against C. albicans CaCi-2 growth, compound alone) [µM] | IC50 ([7]; presence of fluconazole (FIG. 8), read-out: IC50 against C. albicans CaCi-2 growth, with FCZ) [µM] | Cytotoxicity to fluconazole-sensitive C. albicans SC5314, compound alone ([8]; 5 μM I-B-4) | Cytotoxicity to fluconazole-sensitive C. albicans SC5314, combination with fluconazole (FCZ) [8, 9]
1 | C/C=C/C1[C@H]2C[C@@H](C)CC[C@@H]2C(C)=C[C@H]1C(=O)c1c(O)c(-c2ccc(O)cc2)c[nH]c1=O (stereo partly shown) [ilicicolin H, reference compound] | 0.2 | 2 | 4.6 | 100 | 0.003 | – | – | – | – | – | – | – | –
2 | CCOC(=O)N1C(=O)C2(CCCCC2)N(c2ccc(F)cc2)C1=S [CID 56604860, Ethyl 1-(4-fluorophenyl)-4-oxo-2-thioxo-1,3-diazaspiro[4.5]decane-3-carboxylate] | – | – | – | – | – | > 60 | cytotoxic | cytotoxic | depolarization of the mitochondrial membrane does not occur | 0.12 | 0.01 | cytotoxic | cytotoxic
